Results on two compounds are retold here after article PMC9061853, “Luminescent bis(benzo[d]thiazolyl)quinoxaline: facile synthesis, nucleic acid and protein BSA interaction, live-cell imaging, biopharmaceutical research and cancer theranostic application” (RSC Advances, 2019).

The test system of one data set is CT-DNA. In words: UV-visible absorption titration with CT-DNA. It is filed as binding. The protocol:
DNA is one of the key target for cancer therapy. The drug molecules bind with the DNA by three major modes (i) electrostatic interactions with the DNA double helix (ii) binding to grooves of DNA (iii) intercalation between the base pairs of DNA.[25] The titration in UV was performed by increasing concentration of DNA from 10–60 μM into a fixed drug concentration (20 μM). The intra-ligand absorption bands around 290–350 nm (π–π* transition) were used in observation of the interaction of DNA and compound 7e (Fig. S3a ^†). […] Ethidium bromide, a nonspecific intercalator, gives a strong fluorescence while intercalating DNA base pairs. This enhanced fluorescence can be quenched by another chemical moiety which can competitively replace EtBr and binds to the same site.[27] […] The original fluorescence intensity of EtBr–DNA complex is rapidly quenched by increasing the concentration of compound 7e (Fig. S3c ^†). […]
Then the 96 well plate was placed on the shaker for 10 min and subsequently the absorbance was recorded by the ELISA reader at λ = 490 nm. […] The data were expressed as the growth inhibition percentage calculated according to the equation: % growth inhibition = 100 − [(AD × 100)/AB], where AD is the absorbance measured for sample and AB is the absorbance measured for blank wells (cells with a […]
with DNA. The absorbance of the complex was measured after each succeeding addition of […]

Data set [1] in a line: Buffer solubility (LC-MS/MS). As to conditions: aqueous buffer, kinetic from dmso stock; pH 7.4 buffer, 2 h incubation. Type of data set: physicochemical. As for the experimental part:
LC-MS/MS methods were developed for compound 7g to quantify the drug concentration and in vitro study (i.e. buffer solubility, buffer stability, metabolic stability, and permeability) in a systemic manner (Table 4). Chromatographic elution conditions were set with the use of 5 mM ammonium formate containing 0.1% formic acid and acetonitrile containing 0.1% formic acid with C8, Kromasil, and 4.6 × […] as a stationary phase (Fig. S5a and b ^†). […] For the data analysis, % accuracy of compound 7g was calculated and it was soluble up to 25 μM (Fig. 3, eqn (7) ^†).
The in vitro solubility and stability of 7g were evaluated in pH 7.4 buffer. The buffer solubility and stability studies were conducted at six different concentrations ranging from 3.13 to 100 μM. For the data analysis, % stability of compound 7g at 120 min was calculated with respect to 0 min time point samples and it was stable up to 2 hours in pH 7.4 buffers. Data analysis was performed through the eqn (8) ^† and was tabulated (Table 4). Compound 7g found to be stable up to 2 hours with % remaining of 71% in pH 7.4.

A short description of data set [2]: Metabolic stability in dog liver microsomes. It is filed as in vitro ADME. The conditions noted are these: for % Metabolism in 30 min: 0.5 μM, 0.5 mg ml^−1 protein, NADPH, 37 °C; for half-life at 0.5 μM: dog, liver microsomes. The protocol:
(§1) The in vitro metabolic rate of 7g was determined in liver microsomes and the intrinsic clearance (CLintr) was estimated. The study was conducted at 0.5 μM substrate concentration and microsomal protein concentration of 0.5 mg ml^−1. Metabolic stability study in the presence of microsomes and cofactor NADPH was performed at 37 °C, 60 rpm for 30 min time duration. NADPH free control incubation was performed simultaneously for 30 min to understand if there are any non-enzymatic metabolism related issues. […] Intrinsic clearance as given in Table 6, was calculated using eqn (8). ^†
A general note: Liver microsomes are a subcellular fraction often used to study metabolism.

A short description of data set [3]: Caco-2 permeability study. It is filed as in vitro ADME. As to conditions: human, Caco-2, 10 μM, N = 3. As for the experimental part: (§2) Compound 7g permeation ability (i.e. permeability) was assessed through Caco-2 cell monolayer. Permeability study was planned in both directions from apical to basolateral (A to B) and basolateral to apical (B to A) side. A to B is for checking drug permeation characteristics from the intestine (site of absorption) to systemic circulation and B to A is for checking drug efflux back to the intestine.

The test system of a further data set is Caco-2 cell monolayer. As to the kind of experiment: Caco-2 permeability study. Type of data set: in vitro ADME. As to conditions: 10 μM, A to B and B to A; samples below the lower limit of quantitation. As for the experimental part:
as §2
(In general: Caco-2 monolayers are a common model of the intestinal barrier.)

Data set [4] in a line: Metabolic stability in mouse liver microsomes. Type of data set: in vitro ADME. As to conditions: for % Metabolism in 30 min: 0.5 μM, 0.5 mg ml^−1 protein, NADPH, 37 °C; for half-life at 0.5 μM: mouse, liver microsomes. As for the experimental part: as §1

Where only a bound is given, the exact number is not on record here.

`Clc1cc2nc(COc3ccccc3-c3nc4ccccc4s3)c(COc3ccccc3-c3nc4ccccc4s3)nc2cc1Cl` [Compound 7e]: the “K b, intrinsic DNA binding constant” value with CT-DNA (UV-visible absorption titration, 7e 20 μM, DNA 10–60 μM) is 6900 M⁻¹. For the same compound, the “% Hypochromism” value with CT-DNA (UV-visible titration with CT-DNA) was found to be 50%.
What is called solubility is the concentration that dissolves in the medium under given conditions. What is called half-life is the time needed for the level to fall by half in the phase considered. Compound `COc1ccc2nc(COc3ccccc3-c3nc4ccccc4s3)c(COc3ccccc3-c3nc4ccccc4s3)nc2c1` [Compound 7g, 2,2'-((((6-methoxyquinoxaline-2,3-diyl)bis(methylene))bis(oxy))bis(2,1-phenylene))bis(benzo[d]thiazole)] showed a solubility at 2 h in data set [1] of at most 25 µM. Moreover, the CLint in data set [2] (DLM set 1) came to 18 μl per min per mg protein; in data set [2] (DLM set 2) it was 12 μl per min per mg protein; in data set [4] (MLM set 1), 13 μl per min per mg protein; in data set [4] (MLM set 2), 28 μl per min per mg protein. The “% Metabolism in 30 min” value in data set [2] (DLM set 1) amounted to 21%; in data set [2] (DLM set 2), 14%; in data set [4] (MLM set 1), 12%; in data set [4] (MLM set 2), 37%. In addition, the half-life at 0.5 μM in data set [2] (DLM set 1) turned out to be 1.28 h; in data set [2] (DLM set 2), 1.91 h; in data set [4] (MLM set 1), 1.83 h; in data set [4] (MLM set 2) it was 0.818 h. The recovery at 10 μM in data set [3] (A to B) came out at 101%; in data set [3] (B to A) it was 96%. The “permeability across Caco-2 cell monolayer” value in the data set on Caco-2 cell monolayer is “low permeability”.
